Results on 6 compounds are retold here after ChEMBL document CHEMBL1131545, “A practical synthesis of 3-substituted delta 3,5(6)-steroids as new potential 5 alpha-reductase inhibitor” (Bioorg Med Chem Lett, 1998).

The structures appear in SMILES notation.

Assay [1] deals with T1, Steroid 5-alpha-reductase (Rattus norvegicus, UniProt P24008+P31214).
T1 sequence (P24008 whole entry): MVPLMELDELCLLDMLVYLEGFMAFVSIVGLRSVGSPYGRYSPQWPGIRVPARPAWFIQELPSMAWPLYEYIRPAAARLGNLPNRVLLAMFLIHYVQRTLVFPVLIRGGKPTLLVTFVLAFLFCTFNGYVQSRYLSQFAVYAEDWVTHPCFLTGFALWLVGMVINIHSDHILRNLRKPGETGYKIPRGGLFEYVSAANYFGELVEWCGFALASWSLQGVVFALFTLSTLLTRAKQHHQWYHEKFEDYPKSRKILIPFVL
T1 sequence (P31214 whole entry): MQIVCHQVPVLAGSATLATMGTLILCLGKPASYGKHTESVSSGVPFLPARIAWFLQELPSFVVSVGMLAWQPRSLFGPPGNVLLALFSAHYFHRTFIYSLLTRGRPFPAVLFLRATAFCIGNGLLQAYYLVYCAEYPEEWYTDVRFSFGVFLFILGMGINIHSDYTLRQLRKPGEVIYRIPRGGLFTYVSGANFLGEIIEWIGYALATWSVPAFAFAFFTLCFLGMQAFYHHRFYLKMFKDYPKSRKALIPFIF
As to the kind of experiment: Ability to inhibit Steroid 5-alpha-reductase in rat using Enzyme kinetics method.

For assay [2], the target named is T1, Steroid 5-alpha-reductase. The assay is described as follows: Ability to inhibit Steroid 5-alpha-reductase in rat using Isotope method [3H]T to [3H]-DHT].

For the compound `CC(=O)C1=CC2=CCC3C(CC[C@@]4(C)C3CC[C@@H]4C(=O)NC(C)(C)C)[C@@]2(C)CC1` (some centres not stated), the Ki in assay [1] and in assay [2] was >> 1000 nM in each case.
`CCOP(=O)(OCC)C1=CC2=CCC3C(CC[C@@]4(C)C3CC[C@@H]4C(=O)NC(C)(C)C)[C@@]2(C)CC1` (some centres not stated): the figures for the inhibitory constant (Ki) in assay [1] and in assay [2] were 18.1 nM and 68.5 nM, respectively.
Consider `CC(C)(C)NC(=O)[C@H]1CCC2C3CC=C4C=CCC[C@]4(C)C3CC[C@@]21C` (some centres not stated), for which the inhibitory constant (Ki) in assay [1] and in assay [2] was >> 1000 nM each time.
Turning to `CCN(CC)C(=O)C1=CC2=CCC3C(CC[C@@]4(C)C3CC[C@@H]4C(=O)NC(C)(C)C)[C@@]2(C)CC1` (some centres not stated), the Ki in assay [1] and in assay [2] was >> 1000 nM in each case.
In the case of `CC(C)(C)NC(=O)[C@H]1CCC2C3CC=C4C=C(C#Cc5ccccc5)CC[C@]4(C)C3CC[C@@]21C` (some centres not stated), the Ki – broadly, a dissociation constant, usually derived from enzyme kinetics or from competition with a known ligand – in assay [1] was found to be 45.8 nM; in assay [2], 100.2 nM.
Take `CC(C)(C)NC(=O)[C@H]1CC[C@H]2[C@@H]3CC[C@H]4NC(=O)C=C[C@]4(C)[C@H]3CC[C@]12C` [FINASTERIDE]: the Ki was determined as 54.7 nM in assay [1] and 88.2 nM in assay [2].
